Where a name gives a salt, the structure may show the parent alone. One block for each compound: values may come before it.
Experiments:
[1] = dc cyclic voltammetry of ferrocene derivatives (redox potential); format: physicochemical; conditions: for Eo: vs a standard calomel electrode, phosphate buffer at pH 7.0
glucose oxidase [2] = biological target: T1, glucose oxidase (Aspergillus niger, UniProt P13006); experiment: substrate kinetics of glucose oxidase (relative rate, Km); format: biochemical; conditions: substrates for glucose oxidase; β-D-glucose 100
[3] = spectrophotometric measurement (E, cm^-1 M^-1); format: physicochemical
[4] = biological target: T2, glucose enzyme electrode (glucose oxidase) (Aspergillus niger, UniProt P13006); experiment: steady-state current response of the 1,1'-dimethylferrocene/glucose oxidase enzyme electrode (interfering substances, KM'); conditions: for interference to the electrodes response to glucose: added at normal blood concentration
T2 construct: purchased Boehringer Mannheim

glucose oxidase [5] = biological target: T1, glucose oxidase; conditions: non-immobilized enzyme; cited from earlier work
[6] = vs NHE; cited from earlier work
glucose oxidase [7] = biological target: T1, glucose oxidase; conditions: cited from earlier work
glucose oxidase [8] = biological target: T1, glucose oxidase; format: biochemical; conditions: pH 7

T1 sequence (P13006 23-605): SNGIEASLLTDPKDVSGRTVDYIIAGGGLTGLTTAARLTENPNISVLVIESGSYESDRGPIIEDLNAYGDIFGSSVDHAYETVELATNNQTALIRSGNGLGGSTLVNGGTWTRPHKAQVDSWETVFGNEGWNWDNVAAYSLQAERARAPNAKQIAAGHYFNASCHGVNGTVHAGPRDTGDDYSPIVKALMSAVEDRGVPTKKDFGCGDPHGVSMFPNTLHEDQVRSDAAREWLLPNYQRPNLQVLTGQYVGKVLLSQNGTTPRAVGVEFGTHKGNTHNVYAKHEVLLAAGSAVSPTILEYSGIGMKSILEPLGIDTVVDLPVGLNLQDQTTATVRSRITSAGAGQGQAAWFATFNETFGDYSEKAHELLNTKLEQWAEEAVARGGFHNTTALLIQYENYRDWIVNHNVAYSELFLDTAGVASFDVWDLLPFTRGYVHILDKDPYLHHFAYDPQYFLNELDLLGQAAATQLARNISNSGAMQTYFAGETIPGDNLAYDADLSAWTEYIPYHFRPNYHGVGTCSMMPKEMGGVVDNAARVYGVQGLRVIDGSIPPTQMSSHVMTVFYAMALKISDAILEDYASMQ
T2 sequence (P13006 23-605 limits assumed): as the sequence (P13006 23-605) above

Eo [1]: 100 mV
Compound: 1,1'-dimethylferrocene [1,1'-dimethyl-]

Eo' ([1]; Example 4, procedure of Example 3, saturated calomel reference): +420 mV
Eo [1]: 385 mV
Compound: 1,1'-ferrocene dicarboxylic acid [1,1'-dicarboxylic acid]

Compound: 6-methyl-D-glucose
Relative Rate (glucose oxidase [2]): 2

E [3]: 385 cm⁻¹ M⁻¹
Eo [1]: 224 mV
Compound: OC[c-]1cccc1.OC[c-]1cccc1.[Fe+2] [1,1'bis(hydroxymethyl)-]

Compound: OC[C@H]1OC(O)C[C@@H](O)[C@@H]1O (stereo partly drawn) [2-deoxy-D-glucose]
Relative Rate (glucose oxidase [2]): 25

Compound: OC[C@H]1OC(O)[C@@H](O)[C@@H](O)[C@@H]1O (stereo partly drawn) [D-mannose]
Relative Rate (glucose oxidase [2]): 1

Compound: OC1OC[C@@H](O)[C@H](O)[C@H]1O (stereo partly drawn) [D-xylose]
interference to the electrodes response to glucose ([4]; 8 mM glucose): did not cause any observable interference

Compound: OC[C@H]1OC(O)[C@H](O)[C@@H](O)[C@@H]1O (some centres unmarked) [Glucose]
Km ([4]; glucose oxidase immobilized on the prototype ferrocene-based electrodes, kinetically-controlled, read-out: apparent Michaelis-Menten constant KM'): 30 to 40 mM
Km (glucose oxidase [5]): 3 mM

Compound: O=C1O[C@H]([C@@H](O)CO)C(O)=C1O [L-ascorbate]
mean increase in current ([4]; 8 mM glucose, final concentration of 0.13 mM): ca. 4.0%

Compound: Cl.N[C@@H](CS)C(=O)O [L-cysteine HCl]
interference to the electrodes response to glucose ([4]; 8 mM glucose): did not cause any observable interference

Eo [1]: 345 mV
Compound: Cl[c-]1cccc1.[Fe+2].c1cc[cH-]c1 [chloro-]

E [3]: 335 cm⁻¹ M⁻¹
Eo [1]: 165 mV
Compound: [Fe+2].c1cc[cH-]c1.c1cc[cH-]c1 [ferrocene]
redox potential [6]: +422 mV

Compound: O=O [molecular oxygen]
ks, rate of reaction of the natural electron acceptor with glucose oxidase (glucose oxidase [7]): 10^6 M^-1 S^-1

Compound: N[C@@H](CCC(=O)N[C@@H](CS)C(=O)NCC(=O)O)C(=O)O [reduced glutathione]
interference to the electrodes response to glucose ([4]; 8 mM glucose): did not cause any observable interference

Compound: O=CO [sodium formate]
interference to the electrodes response to glucose ([4]; 8 mM glucose): did not cause any observable interference

Compound: OC[C@H]1O[C@H](O)[C@H](O)[C@@H](O)[C@@H]1O [α-D-glucose]
Relative Rate (glucose oxidase [2]): 0.6

Compound: OC[C@H]1O[C@H](O)[C@H](O)[C@@H](O)[C@H]1O [α-galactose]
interference to the electrodes response to glucose ([4]; 8 mM glucose): did not cause any observable interference

Compound: OC[C@H]1O[C@H](O)[C@@H](O)[C@@H](O)[C@@H]1O [α-mannose]
interference to the electrodes response to glucose ([4]; 8 mM glucose): did not cause any observable interference

Compound: OC[C@H]1O[C@@H](O)[C@H](O)[C@@H](O)[C@@H]1O [β-D-glucose]
Relative Rate (glucose oxidase [2]): 100

Compound: vinyl ferrocene [vinyl-]
Eo/mV vs SCE ([1]; pH 7): 250 mV
Rates of glucose oxidase oxidation (glucose oxidase [8]): 18

Source: patent US4711245A, “Sensor for components of a liquid mixture” (Genetics International, Inc., priority 1983, dated 1987)
